Results taken from PMC7318554 (Journal of medicinal chemistry, 2020).
Read-outs that look alike come from different tables or passages of the source.

What was measured:
[1] = molecular target: EGFR e19d (EGFR mutant with exon 19 deletion) (Homo sapiens, UniProt P00533, DEL746-750); assay: Western blotting of EGFR protein in HCC-827 cells; type: cell-based; conditions: for time after washout at which the EGFR protein level was recovered: 12 h degrader treatment, then washout; for maximum EGFR protein degradation: at a concentration as low as 50 nM, 16 h; for hook effect: highest concentration 10 μM (PROTAC3: 1 and 10 μM)
EGFR L858R [2] = molecular target: T1, EGFR L858R (Homo sapiens, UniProt P00533, L858R); assay: Western blotting of EGFR protein in H3255 cells; type: cell-based; conditions: for reversibility of EGFR degradation upon washout / maximum EGFR protein degradation / hook effect / effect on mutant EGFR protein level: H3255 cells; for reversibility of EGFR degradation upon washout: 12 h degrader treatment, then washout; for maximum EGFR protein degradation: at a concentration as low as 50 nM, 16 h; for hook effect: highest concentration 10 μM (PROTAC3: 1 and 10 μM); for effect on mutant EGFR protein level: 8 h serum-free, 16 h treatment, gefitinib at 1 μM
WT EGFR [3] = molecular target: T2, WT EGFR (Homo sapiens, UniProt P00533); assay: Western blotting of WT EGFR protein in OVCAR-8 cells; type: cell-based; conditions: 8 h serum-free, 16 h treatment
WT EGFR [4] = molecular target: T2, WT EGFR; assay: Western blotting of WT EGFR protein in H1299 cells; type: cell-based; conditions: 8 h serum-free, 16 h treatment
p-EGFR, p-AKT [5] = assay: Western blotting of downstream signaling; type: cell-based
p-EGFR, p-AKT [6] = assay: Western blotting of downstream signaling; type: cell-based; remark: listed apart in the source
H3255 cells = assay: Cell proliferation assay; type: cell-based; conditions: 3 days
EGFR = EGFR (Homo sapiens, UniProt P00533, DEL746-750); assay: Global label-free quantitative proteomics in HCC-827 cells; type: cell-based; conditions: HCC-827 cells starved 8 h; 100 nM for 16 h
in vivo = conditions: male, Swiss Albino, mouse, ip, 50 mg/kg
[7] = Mouse pharmacokinetic study; conditions: mice; single IP injection 50 mg/kg
EGFR WT = EGFR WT (Homo sapiens, UniProt P00533); assay: KINOMEscan competition binding assay, EGFR WT
EGFR L858R [8] = molecular target: T1, EGFR L858R; assay: KINOMEscan competition binding assay, EGFR L858R; conditions: EGFR L858R mutant
WT EGFR [9] = molecular target: T2, WT EGFR; conditions: previous finding; cited from earlier work
[10] = 100 nM, after 8 h serum starvation
[11] = HCC-827 cells, 12 h degrader treatment, then washout
[12] = HCC-827 cells, 16 h treatment, gefitinib at 1 μM
[13] = H3255 cells, 16 h treatment, gefitinib at 1 μM

COc1cc2ncnc(Nc3ccc(F)c(Cl)c3)c2cc1OCCCN1CCN(C(=O)CCCCCCCCCC(=O)N[C@H](C(=O)N2C[C@H](O)C[C@H]2C(=O)NCc2ccc(-c3scnc3C)cc2)C(C)(C)C)CC1 [Compound 6, (2S,4R)-1-((S)-2-(11-(4-(3-((4-((3-Chloro-4-fluorophenyl)amino)-7-methoxyquinazolin-6-yl)oxy)propyl)piperazin-1-yl)-11-oxounde-canamido)-3,3-dimethylbutanoyl)-4-hydroxy-N-(4-(4-methylthiazol-5-yl)benzyl)pyrrolidine-2-carboxamide]
treatment time to near-complete / maximum EGFR degradation [1, 10]: around 12 h | time after washout at which the EGFR protein level was recovered [1]: 24 h | maximum EGFR protein degradation [1]: over 95% | hook effect [1]: slight “hook effect” | reversibility of EGFR degradation upon washout (EGFR L858R [2]): reversible | maximum EGFR protein degradation (EGFR L858R [2]): over 95% | hook effect (EGFR L858R [2]): undetectable | effect on WT EGFR protein levels (WT EGFR [3]): did not significantly reduce the WT EGFR protein levels | effect on WT EGFR protein levels (WT EGFR [4]): did not significantly reduce the WT EGFR protein levels | effect on AKT protein levels (p-EGFR, p-AKT [5]): did not affect the AKT protein levels | inhibition of EGFR autophosphorylation (p-EGFR) and AKT phosphorylation (p-AKT) (p-EGFR, p-AKT [5]): potently inhibited | time after washout at which p-AKT was recovered (p-EGFR, p-AKT [5]): 48 h | time after washout at which p-EGFR was recovered (p-EGFR, p-AKT [5]): 24 h | treatment time at which robust inhibition of p-AKT was observed (p-EGFR, p-AKT [5]): 1 h | effect on AKT protein levels (p-EGFR, p-AKT [6]): did not affect the AKT protein levels | inhibition of EGFR autophosphorylation (p-EGFR) and AKT phosphorylation (p-AKT) (p-EGFR, p-AKT [6]): potently inhibited | cell growth inhibition (H3255 cells): effectively inhibited the growth of H3255 cells | potency at cell growth inhibition compared with PROTAC3 (H3255 cells): more potent than the previously reported PROTAC3 | potency at cell growth inhibition compared with gefitinib (H3255 cells): less potent | EGFR protein degraded (EGFR): Over 75% | concentration at 24 h (in vivo): ~1000 nM | plasma concentration maintained over 8 h [7]: approximately 5 μM | tolerability [7]: well tolerated, and no clinical signs were observed | weaker binding affinity compared to gefitinib (EGFR WT): approximately 10 fold | weaker binding affinity compared to gefitinib (EGFR L858R [8]): approximately 10 fold

COc1cc2ncnc(Nc3ccc(F)c(Cl)c3)c2cc1OCCCN1CCN(CCC(=O)NCCCCCCCCOc2cccc3c2C(=O)N(C2CCC(=O)NC2=O)C3=O)CC1 (centres unmarked) [Compound 10, 3-(4-(3-((4-((3-Chloro-4-fluorophenyl)amino)-7-methoxyquinazolin-6-yl)oxy)propyl)piperazin-1-yl)-N-(8-((2-(2,6-dioxopiperidin-3-yl)-1,3-dioxoisoindolin-4-yl)oxy)octyl)propanamide]
time to reduce the half-maximum of the EGFR protein level [1, 10]: 3.5 h | treatment time to near-complete / maximum EGFR degradation [1, 10]: 12 h | time after washout at which the EGFR protein level was recovered [1]: 24 h | maximum EGFR protein degradation [1]: over 95% | hook effect [1]: slight “hook effect” | reversibility of EGFR degradation upon washout (EGFR L858R [2]): reversible | maximum EGFR protein degradation (EGFR L858R [2]): over 95% | hook effect (EGFR L858R [2]): undetectable | effect on WT EGFR protein levels (WT EGFR [3]): did not significantly reduce the WT EGFR protein levels | effect on WT EGFR protein levels (WT EGFR [4]): did not significantly reduce the WT EGFR protein levels | effect on AKT protein levels (p-EGFR, p-AKT [5]; HCC-827 cells): did not affect the AKT protein levels | time after washout at which p-AKT was recovered (p-EGFR, p-AKT [5]; [11]): 48 h | time after washout at which p-EGFR was recovered (p-EGFR, p-AKT [5]; [11]): 24 h | inhibition of EGFR autophosphorylation (p-EGFR) and AKT phosphorylation (p-AKT) (p-EGFR, p-AKT [5]; [12]): potently inhibited | effect on AKT protein levels (p-EGFR, p-AKT [6]; H3255 cells): did not affect the AKT protein levels | inhibition of EGFR autophosphorylation (p-EGFR) and AKT phosphorylation (p-AKT) (p-EGFR, p-AKT [6]; [13]): potently inhibited | cell growth inhibition (H3255 cells): inhibited the growth of H3255 cell | potency at cell growth inhibition compared with PROTAC3 (H3255 cells): not as potent as compound 6 and PROTAC3 | potency at cell growth inhibition compared with gefitinib (H3255 cells): less potent | EGFR protein degraded (EGFR): Over 75% | highest plasma concentration [7]: approximately 500 nM | time post dosing of the highest plasma concentration [7]: 8 h | tolerability [7]: well tolerated, and no clinical signs were observed | weaker binding affinity compared to gefitinib (EGFR L858R [8]): 5 fold

COc1cc2ncnc(Nc3ccc(F)c(Cl)c3)c2cc1OCCCN1CCN(C(=O)CCCCCCCCCC(=O)N[C@H](C(=O)N2C[C@@H](O)C[C@@H]2C(=O)NCc2ccc(-c3scnc3C)cc2)C(C)(C)C)CC1 [Compound 27, (2R,4S)-1-((S)-2-(11-(4-(3-((4-((3-Chloro-4-fluorophenyl)amino)-7-methoxyquinazolin-6-yl)oxy)propyl)piperazin-1-yl)-11-oxoundecanamido)-3,3-dimethylbutanoyl)-4-hydroxy-N-(4-(4-methylthiazol-5-yl)benzyl)pyrrolidine-2-carboxamide]
effect of 2 h pretreatment on EGFR degradation induced by compound 6 (EGFR L858R [2]): blocked | effect on mutant EGFR protein level (EGFR L858R [2]): did not significantly induce the degradation of EGFR mutants | inhibition of EGFR autophosphorylation (p-EGFR) and AKT phosphorylation (p-AKT) (p-EGFR, p-AKT [5]): lower potency | inhibition of EGFR autophosphorylation (p-EGFR) and AKT phosphorylation (p-AKT) (p-EGFR, p-AKT [6]): lower potency

COc1cc2ncnc(Nc3ccc(F)c(Cl)c3)c2cc1OCCCN1CCN(CCC(=O)NCCCCCCCCOc2cccc3c2C(=O)N(C2CCC(=O)N(C)C2=O)C3=O)CC1 (centres unmarked) [Compound 28, 3-(4-(3-((4-((3-Chloro-4-fluorophenyl)amino)-7-methoxyquina-zolin-6-yl)oxy)propyl)piperazin-1-yl)-N-(8-((2-(1-methyl-2,6-dioxopiperidin-3-yl)-1,3-dioxoisoindolin-4-yl)oxy)octyl)propanamide]
effect on mutant EGFR protein level (EGFR L858R [2]): did not significantly induce the degradation of EGFR mutants | inhibition of EGFR autophosphorylation (p-EGFR) and AKT phosphorylation (p-AKT) (p-EGFR, p-AKT [5]; [12]): lower potency | inhibition of EGFR autophosphorylation (p-EGFR) and AKT phosphorylation (p-AKT) (p-EGFR, p-AKT [6]; [13]): lower potency

COc1cc2ncnc(Nc3ccc(F)c(Cl)c3)c2cc1OCCCCCOCCOCCC(=O)N[C@H](C(=O)N1C[C@H](O)C[C@H]1C(=O)NCc1ccc(-c2scnc2C)cc1)C(C)(C)C [PROTAC3, reference compound]
hook effect [1]: much more significant hook effect | hook effect (EGFR L858R [2]): much more significant hook effect | potency at cell growth inhibition compared with gefitinib (H3255 cells): less potent | degradation of the WT EGFR (WT EGFR [9]): did not degrade the WT EGFR

Cc1ncsc1-c1ccc(CNC(=O)[C@@H]2C[C@@H](O)CN2C(=O)[C@@H](NC(=O)C2(C#N)CC2)C(C)(C)C)cc1 [VH-298, reference compound]
effect of 2 h pretreatment on EGFR degradation induced by compound 6 (EGFR L858R [2]): blocked

O=C1CCC(N2C(=O)c3ccccc3C2=O)C(=O)N1 (centres unmarked) [thalidomide, reference compound]
effect of 2 h pretreatment on EGFR degradation induced by compound 10 (EGFR L858R [2]): blocked
